Reference: PMC9688344, “[^225Ac]Ac-SibuDAB for Targeted Alpha Therapy of Prostate Cancer: Preclinical Evaluation and Comparison with [^225Ac]Ac-PSMA-617” (Cancers, 2022)

Tested on: BALB/c nude mice
Assay: Comparison of treated (cured) therapy mice with healthy mice at study end
Assay type: in vivo
Procedure: After administration of the radioligands, the mice were monitored over 8 weeks using the same measures as previously published by Umbricht et al.. The relative body mass was defined as [BMx/BM0], where BMx is the body mass in grams at a given Day x and BM0 is the body mass in grams at Day 0. The tumor dimension was determined by measuring the longest tumor axis (L) and its perpendicular axis (W) with a digital caliper. The tumor volume (V) was calculated according to the equation [V = 0.5 × (LW^2)]. The relative tumor volume was defined as [TVx/TV0], where TVx is the tumor volume in mm^3 at a given Day x, and TV0 is the tumor volume in mm^3 at Day 0. Endpoint criteria that required euthanasia were defined as (i) body mass loss of >15%, (ii) a tumor volume of >800 mm^3, (iii) a combination of body mass loss of >10% and a tumor volume of >700 mm^3 or, (iv) signs of unease and pain or a combination thereof using a scoring system as previously reported. The median survival of mice of each group was assessed with Kaplan–Meier curves. Potential early side effects for mice that survived until study end were determined based on blood chemistry and organ-to-brain mass ratios on Day 56 by comparison to values obtained from an additional group of therapy-naïve mice (n = 4) without tumors but of the same age (Supplementary Material: Section S9). […]
10. Comparison of [225Ac]Ac-SibuDAB-Treated Mice with Healthy Mice at Study End Purpose: To investigate whether a successful tumor treatment with [225Ac]Ac- […]
compared to treatment-naïve, non-tumor-bearing mice on Day 56.
Methods: In order to assess the tolerability of the treatment, the body mass, the organ masses and organ-to-brain mass ratios as well as blood chemistry of the cured mice were compared to those of healthy, non-tumor-bearing BALB/c nude mice on Day 56.
Results: Survival: Targeted alpha therapy using [225Ac]Ac-SibuDAB was very effec-tive and all mice treated with 5 kBq, 10 kBq or 30 kBq of this radioligand survived until […]
Body Mass: The body mass of mice that were effectively treated with [225Ac]Ac-SibuDAB was in the same range as for healthy, non-tumor-bearing control mice at the end of the study on Day 56 (p>0.05) ( Table S11).

CC(C)Cc1ccc(C(C)C(=O)NC(CCN)C(=O)NCCCCC(NC(=O)CN2CCN(CC(=O)[O-])CCN(CC(=O)[O-])CCN(CC(=O)[O-])CC2)C(=O)NCC2CCC(C(=O)NC(Cc3ccc4ccccc4c3)C(=O)NCCCCC(NC(=O)NC(CCC(=O)O)C(=O)O)C(=O)O)CC2)cc1.[225Ac+3] (stereo not drawn) [[^225Ac]Ac-SibuDAB]
ALB (Day 56, 5 kBq): 25 ± 2 g/L | ALP (Day 56, 5 kBq): 93 ± 10 U/L | BUN (Day 56, 5 kBq): 6.4 ± 1.2 mmol/L | Brain mass (Day 56, 5 kBq): 403 ± 14 mg | Kidney mass (Day 56, 5 kBq): 252 ± 15 mg | Kidney-to-brain mass ratio (Day 56, 5 kBq): 0.63 ± 0.03 | Liver mass (Day 56, 5 kBq): 1079 ± 47 mg | Liver-to-brain mass ratio (Day 56, 5 kBq): 2.7 ± 0.1 | RBM (relative body mass) (Day 56, 5 kBq): 1.13 ± 0.05 | Spleen mass (Day 56, 5 kBq): 113 ± 17 mg | Spleen-to-brain mass ratio (Day 56, 5 kBq): 0.28 ± 0.04 | TBIL (Day 56, 5 kBq): 4.0 ± 0.9 µmol/L | ALB (Day 56, 10 kBq): 26 ± 2 g/L | ALP (Day 56, 10 kBq): 85 ± 7 U/L | BUN (Day 56, 10 kBq): 7.3 ± 0.8 mmol/L | Brain mass (Day 56, 10 kBq): 384 ± 18 mg | Kidney mass (Day 56, 10 kBq): 260 ± 11 mg | Kidney-to-brain mass ratio (Day 56, 10 kBq): 0.68 ± 0.04 | Liver mass (Day 56, 10 kBq): 1139 ± 83 mg | Liver-to-brain mass ratio (Day 56, 10 kBq): 3.0 ± 0.2 | RBM (relative body mass) (Day 56, 10 kBq): 1.12 ± 0.03 | Spleen mass (Day 56, 10 kBq): 116 ± 32 mg | Spleen-to-brain mass ratio (Day 56, 10 kBq): 0.31 ± 0.09 | TBIL (Day 56, 10 kBq): 3.2 ± 0.4 µmol/L | ALB (Day 56, 30 kBq): 22 ± 1 g/L | ALP (Day 56, 30 kBq): 83 ± 2 U/L | Adverse events in cured mice compared to healthy mice (Day 56, 30 kBq): No obvious adverse events | BUN (Day 56, 30 kBq): 7.2 ± 0.7 mmol/L | Brain mass (Day 56, 30 kBq): 408 ± 16 mg | Kidney mass (Day 56, 30 kBq): 252 ± 24 mg | Kidney-to-brain mass ratio (Day 56, 30 kBq): 0.62 ± 0.05 | Liver mass (Day 56, 30 kBq): 1096 ± 79 mg | Liver-to-brain mass ratio (Day 56, 30 kBq): 2.7 ± 0.2 | RBM (relative body mass) (Day 56, 30 kBq): 1.11 ± 0.02 | Spleen mass (Day 56, 30 kBq): 127 ± 23 mg | Spleen-to-brain mass ratio (Day 56, 30 kBq): 0.31 ± 0.07 | TBIL (Day 56, 30 kBq): 4.3 ± 0.5 µmol/L | Kidney-to-brain mass ratio (cured mice, Day 56, range over groups): 0.62–0.68 | Tolerability of therapy (body mass increasing over time) (effectively treated PC-3 PIP tumor-bearing mice): well tolerated
